Among the data in patent US9469631B2 (Boehringer Ingelheim International GmbH, priority 2012, dated 2016) are EC50 values, retold here.

For this assay, the target named is human GPR119 (Homo sapiens (Human), UniProt Q8TDV5). The experiment in a line: AlphaScreen cAMP assay in MIN6 cells stably transfected with human GPR119. Format: cell-based. Particulars: Min-6/hGPR119 cells, 45 min incubation at room temperature. In short, it runs like this: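 MIN6 cells stably expressing human GPR119 were seeded at 10000 cells/well for 24 h. Compounds were then applied in pH 7.4 buffer with 0.5 mM IBMX, 0.1% BSA and 1% DMSO for 45 min at about 20 °C. Intracellular cAMP was measured by AlphaScreen.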
Chain of human GPR119 (Q8TDV5 whole entry): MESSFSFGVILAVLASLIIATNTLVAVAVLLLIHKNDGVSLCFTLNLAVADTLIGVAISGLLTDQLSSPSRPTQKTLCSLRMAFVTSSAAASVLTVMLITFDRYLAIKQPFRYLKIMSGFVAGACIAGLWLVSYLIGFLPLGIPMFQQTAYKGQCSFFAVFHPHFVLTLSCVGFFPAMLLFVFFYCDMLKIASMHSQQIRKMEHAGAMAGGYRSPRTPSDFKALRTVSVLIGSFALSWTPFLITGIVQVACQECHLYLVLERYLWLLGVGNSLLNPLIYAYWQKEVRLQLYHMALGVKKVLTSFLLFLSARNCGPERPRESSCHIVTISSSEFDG
The compound `CCOc1ccc(-c2ccc(C(=O)N(C3CC3)C3CCN(C(=O)OC(C)(C)C)CC3)cc2)cc1` [Example 87, 4-[Cyclopropyl-(4′-ethoxy-biphenyl-4-carbonyl)-amino]-piperidine-1-carboxylic acid tert-butyl ester] came in with an EC50 of 256 nM.

In turn, `CC(C)(C)OC(=O)N1CCC(N(C(=O)c2ccc(-c3ccc(OC(F)(F)F)cc3)cc2)C2CC2)CC1` [Example 88, 4-[Cyclopropyl-(4′-trifluoromethoxy-biphenyl-4-carbonyl)-amino]-piperidine-1-carboxylic acid tert-butyl ester] displayed an EC50 of 203 nM. With `CC(C)(C)OC(=O)N1CCC(N(C(=O)c2ccc(-c3ccc(C#N)s3)cc2)C2CC2)CC1` [Example 89, 4-{[4-(5-Cyano-thiophen-2-yl)-benzoyl]-cyclopropyl-amino}-piperidine-1-carboxylic acid tert-butyl ester] the figure was 24 nM.

`CC(C)(C)OC(=O)N1CCC(N(C(=O)c2ccc(-c3ccoc3)cc2)C2CC2)CC1` [Example 90, 4-[Cyclopropyl-(4-furan-3-yl-benzoyl)-amino]-piperidine-1-carboxylic acid tert-butyl ester] yielded an EC50 of 228 nM.

For the compound `CC(C)(C)OC(=O)N1CCC(N(C(=O)c2ccc(-c3ccc(CC#N)cc3)cc2)C2CC2)CC1` [Example 91, 4-[(4′-Cyanomethyl-biphenyl-4-carbonyl)-cyclopropyl-amino]-piperidine-1-carboxylic acid tert-butyl ester], a half-maximal effect (EC50) was put at 86 nM. With `CC(C)(C)OC(=O)N1CCC(N(C(=O)c2ccc(-c3ccc(NS(C)(=O)=O)cc3)cc2)C2CC2)CC1` [Example 92, 4-[Cyclopropyl-(4′-methanesulfonylamino-biphenyl-4-carbonyl)-amino]-piperidine-1-carboxylic acid tert-butyl ester] the figure was 79 nM; with `CC(C)(C)OC(=O)N1CCC(N(C(=O)c2ccc(-c3ccc(S(C)(=O)=O)cc3)cc2)C2CC2)CC1` [Example 93, 4-[Cyclopropyl-(4′-methanesulfonyl-biphenyl-4-carbonyl)-amino]-piperidine-1-carboxylic acid tert-butyl ester], 177 nM. Then `CC(C)(C)OC(=O)N1CCC(N(C(=O)c2ccc(-c3ccccc3C#N)cc2)C2CC2)CC1` [Example 94, 4-[(2′-Cyano-biphenyl-4-carbonyl)-cyclopropyl-amino]-piperidine-1-carboxylic acid tert-butyl ester], with 317 nM; and `Cc1noc(C)c1-c1ccc(C(=O)N(C2CC2)C2CCN(C(=O)OC(C)(C)C)CC2)cc1` [Example 95, 4-{Cyclopropyl-[4-(3,5-dimethyl-isoxazol-4-yl)-benzoyl]-amino}-piperidine-1-carboxylic acid tert-butyl ester], with 85 nM; and `COc1ccc(-c2ccc(C(=O)N(C3CC3)C3CCN(C(=O)OC(C)(C)C)CC3)cc2)cn1` [Example 96, 4-{Cyclopropyl-[4-(6-methoxy-pyridin-3-yl)-benzoyl]-amino}-piperidine-1-carboxylic acid tert-butyl ester], with 131 nM. With `CC(C)(C)NS(=O)(=O)c1ccccc1-c1ccc(C(=O)N(C2CC2)C2CCN(C(=O)OC(C)(C)C)CC2)cc1` [Example 97, 4-[(2′-tert-Butylsulfamoyl-biphenyl-4-carbonyl)-cyclopropyl-amino]-piperidine-1-carboxylic acid tert-butyl ester] the figure was 161 nM; with `CC(C)(C)OC(=O)N1CCC(N(C(=O)c2ccc(-c3ccc(CO)cc3)cc2)C2CC2)CC1` [Example 98, 4-[Cyclopropyl-(4′-hydroxymethyl-biphenyl-4-carbonyl)-amino]-piperidine-1-carboxylic acid tert-butyl ester], 68 nM; with `COc1ncc(-c2ccc(C(=O)N(C3CC3)C3CCN(C(=O)OC(C)(C)C)CC3)cc2)cn1` [Example 99, 4-{Cyclopropyl-[4-(2-methoxy-pyrimidin-5-yl)-benzoyl]-amino}-piperidine-1-carboxylic acid tert-butyl ester], 55 nM.

In the case of `CC(C)(C)OC(=O)N1CCC(N(C(=O)c2ccc(-c3ccc(C#N)nc3)cc2)C2CC2)CC1` [Example 100, 4-{[4-(6-Cyano-pyridin-3-yl)-benzoyl]-cyclopropyl-amino}-piperidine-1-carboxylic acid tert-butyl ester], the EC50 was 34 nM. `CC(C)(C)OC(=O)N1CCC(N(C(=O)c2ccc(-c3ccc(N4CCOCC4)cc3)cc2)C2CC2)CC1` [Example 101, 4-[Cyclopropyl-(4′-morpholin-4-yl-biphenyl-4-carbonyl)-amino]-piperidine-1-carboxylic acid tert-butyl ester] yielded an EC50 of 127 nM. With `CC(C)(C)OC(=O)N1CCC(N(C(=O)c2ccc(-c3ccc(C(N)=O)cc3)cc2)C2CC2)CC1` [Example 102, 4-[(4′-Carbamoyl-biphenyl-4-carbonyl)-cyclopropyl-amino]-piperidine-1-carboxylic acid tert-butyl ester] the figure was 39 nM; with `CCNC(=O)c1ccc(-c2ccc(C(=O)N(C3CC3)C3CCN(C(=O)OC(C)(C)C)CC3)cc2)cc1` [Example 103, 4-[Cyclopropyl-(4′-ethylcarbamoyl-biphenyl-4-carbonyl)-amino]-piperidine-1-carboxylic acid tert-butyl ester], 51 nM; with `CC(=O)NCc1ccc(-c2ccc(C(=O)N(C3CC3)C3CCN(C(=O)OC(C)(C)C)CC3)cc2)cc1` [Example 104, 4-{[4′-(Acetylamino-methyl)-biphenyl-4-carbonyl]-cyclopropyl-amino}-piperidine-1-carboxylic acid tert-butyl ester], 333 nM. Then `CC(C)(C)OC(=O)N1CCC(N(C(=O)c2ccc(-c3ccc(S(N)(=O)=O)cc3)cc2)C2CC2)CC1` [Example 105, 4-[Cyclopropyl-(4′-sulfamoyl-biphenyl-4-carbonyl)-amino]-piperidine-1-carboxylic acid tert-butyl ester], with 115 nM; and `CC(C)(C)OC(=O)N1CCC(N(C(=O)c2ccc(-c3ccc(C#N)c(F)c3)cc2)C2CC2)CC1` [Example 106, 4-[(4′-Cyano-3′-fluoro-biphenyl-4-carbonyl)-cyclopropyl-amino]-piperidine-1-carboxylic acid tert-butyl ester], with 78 nM; and `COC(=O)c1ccc(-c2ccc(C(=O)N(C3CC3)C3CCN(C(=O)OC(C)(C)C)CC3)cc2)cn1` [Example 107, 5-{4-[(1-tert-Butoxycarbonyl-piperidin-4-yl)-cyclopropyl-carbamoyl]-phenyl}-pyridine-2-carboxylic acid methyl ester], with 66 nM.

`CC(C)(C)OC(=O)N1CCC(N(C(=O)c2ccc(-c3ccc(O)nc3)cc2)C2CC2)CC1` [Example 108, 4-{Cyclopropyl-[4-(6-hydroxy-pyridin-3-yl)-benzoyl]-amino}-piperidine-1-carboxylic acid tert-butyl ester] showed an EC50 of 461 nM. The compound `CCOc1ccc(-c2ccc(C(=O)N(C3CC3)C3CCN(C(=O)OC(C)(C)C)CC3)cc2)cn1` [Example 109, 4-{Cyclopropyl-[4-(6-ethoxy-pyridin-3-yl)-benzoyl]-amino}-piperidine-1-carboxylic acid tert-butyl ester] gave an EC50 of 316 nM. Then `CC(C)(C)OC(=O)N1CCC(N(C(=O)c2ccc(-c3ccc(S(C)(=O)=O)cc3F)cc2)C2CC2)CC1` [Example 110, 4-[Cyclopropyl-(2′-fluoro-4′-methanesulfonyl-biphenyl-4-carbonyl)-amino]-piperidine-1-carboxylic acid tert-butyl ester], with 44 nM. With `CNS(=O)(=O)c1ccc(-c2ccc(C(=O)N(C3CC3)C3CCN(C(=O)OC(C)(C)C)CC3)cc2)cc1` [Example 111, 4-[Cyclopropyl-(4′-methylsulfamoyl-biphenyl-4-carbonyl)-amino]-piperidine-1-carboxylic acid tert-butyl ester] the figure was 111 nM; with `CN(C)Cc1ccc(-c2ccc(C(=O)N(C3CC3)C3CCN(C(=O)OC(C)(C)C)CC3)cc2)cc1` [Example 112, 4-[Cyclopropyl-(4′-dimethylaminomethyl-biphenyl-4-carbonyl)-amino]-piperidine-1-carboxylic acid tert-butyl ester], 1740 nM; with `CC(C)(C)OC(=O)N1CCC(N(C(=O)c2ccc(-c3cncc(C#N)c3)cc2)C2CC2)CC1` [Example 113, 4-{[4-(5-Cyano-pyridin-3-yl)-benzoyl]-cyclopropyl-amino}-piperidine-1-carboxylic acid tert-butyl ester], 48 nM.

Take `CN(C)c1ccc(-c2ccc(C(=O)N(C3CC3)C3CCN(C(=O)OC(C)(C)C)CC3)cc2)cn1` [Example 114, 4-{Cyclopropyl-[4-(6-dimethylamino-pyridin-3-yl)-benzoyl]-amino}-piperidine-1-carboxylic acid tert-butyl ester]: the midpoint of the response, the EC50, lay at 229 nM. In turn, `CC(C)(C)OC(=O)N1CCC(N(C(=O)c2ccc(-c3ccc(C(=O)O)nc3)cc2)C2CC2)CC1` [Example 115, 5-{4[(1-tert-Butoxycarbonyl-piperidin-4-yl)-cyclopropyl-carbamoyl]-phenyl}-pyridine-2-carboxylic acid] displayed an EC50 of 1090 nM. `COC(=O)N1CCC(N(C(=O)c2ccc(-c3cnco3)cc2)C2CC2)CC1` [Example 116, 4-[Cyclopropyl-(4-oxazol-5-yl-benzoyl)-amino]-piperidine-1-carboxylic acid methyl ester] came in with an EC50 of 1570 nM.

`CCOC(=O)N1CCC(N(C(=O)c2ccc(-c3cnco3)cc2)C2CC2)CC1` [Example 117, 4-[Cyclopropyl-(4-oxazol-5-yl-benzoyl)-amino]-piperidine-1-carboxylic acid ethyl ester] yielded an EC50 of 222 nM. Then `CC(C)OC(=O)N1CCC(N(C(=O)c2ccc(-c3cnco3)cc2)C2CC2)CC1` [Example 118, 4-[Cyclopropyl-(4-oxazol-5-yl-benzoyl)-amino]-piperidine-1-carboxylic acid isopropyl ester], with 62 nM.
